In data set [1] the target is Bromodomain and PHD finger-containing protein 3 (Homo sapiens) (UniProt Q9ULD4). In words: Binding affinity of recombinant His-tagged BRPF-3 (unknown origin) to histone H4Ac (1 to 21 residues) K5/8/12/Ac-Biotin-OH assessed as residual binding at 10 uM incubated for 30 mins by alphascreen analysis relative to control. (Bead proximity is the source of the signal in Alpha formats.)

Data set [2] deals with Bromodomain-containing protein 3 (Homo sapiens) (UniProt Q15059). In words: Binding affinity of recombinant His-tagged BRD3-BD2 (unknown origin) to histone H4Ac (1 to 21 residues) K5/8/12/Ac-Biotin-OH assessed as residual binding at 10 uM incubated for 30 mins by alphascreen analysis relative to control.
Bromodomain-containing protein 3 (Homo sapiens), sequence (Q15059 2-726 limits assumed): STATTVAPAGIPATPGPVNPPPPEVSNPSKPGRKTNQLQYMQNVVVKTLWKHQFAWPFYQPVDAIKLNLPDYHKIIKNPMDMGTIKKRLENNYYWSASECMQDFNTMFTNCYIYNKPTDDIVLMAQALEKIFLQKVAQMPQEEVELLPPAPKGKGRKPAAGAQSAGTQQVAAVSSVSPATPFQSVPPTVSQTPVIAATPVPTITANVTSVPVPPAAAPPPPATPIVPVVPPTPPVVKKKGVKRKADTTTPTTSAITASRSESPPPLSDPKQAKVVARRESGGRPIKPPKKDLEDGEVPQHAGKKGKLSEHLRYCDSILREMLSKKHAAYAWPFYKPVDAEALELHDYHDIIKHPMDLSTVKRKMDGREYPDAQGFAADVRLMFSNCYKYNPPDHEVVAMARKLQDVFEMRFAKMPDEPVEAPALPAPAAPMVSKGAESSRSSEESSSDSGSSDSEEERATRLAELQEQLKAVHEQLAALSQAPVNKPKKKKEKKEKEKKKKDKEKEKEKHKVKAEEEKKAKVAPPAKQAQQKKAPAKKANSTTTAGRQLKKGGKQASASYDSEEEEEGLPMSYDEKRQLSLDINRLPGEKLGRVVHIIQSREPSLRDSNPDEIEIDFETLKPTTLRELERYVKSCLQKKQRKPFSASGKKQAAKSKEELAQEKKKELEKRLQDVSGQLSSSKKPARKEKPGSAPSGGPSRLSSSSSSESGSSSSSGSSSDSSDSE
The target of data set [3] is Transcription initiation factor TFIID subunit 1 (Homo sapiens) (UniProt P21675). In words: Binding affinity of recombinant His-tagged TAF1 (unknown origin) to histone H4Ac (1 to 21 residues) K5/8/12/Ac-Biotin-OH assessed as residual binding at 10 uM incubated for 30 mins by alphascreen analysis relative to control.
Data set [4] deals with MCF7. The data set is described as follows: Cytotoxicity against human MCF7 cells assessed as cell viability measured after 24 hrs by MTT assay. In kind it is functional, cell-based. As to conditions: MCF7, 24 h.
Data set [5] addresses Bromodomain-containing protein 3 (Homo sapiens) (UniProt Q15059). The data set is described as follows: Binding affinity of recombinant His-tagged BRD3-BD1 (unknown origin) to histone H4Ac (1 to 21 residues) K5/8/12/Ac-Biotin-OH assessed as residual binding at 10 uM incubated for 30 mins by alphascreen analysis relative to control.
Data set [6] deals with HaCaT. In words: Cytotoxicity against human HaCaT cells assessed as cell viability measured after 24 hrs by MTT assay. In kind it is functional, cell-based. A general note: Tetrazolium dyes change colour on reduction, which living cells bring about.
The target of data set [7] is Bromodomain-containing protein 7 (Homo sapiens) (UniProt Q9NPI1). The data set is described as follows: Binding affinity of recombinant His-tagged […] (unknown origin) to histone H3 (1 to 30 residues) K4/18/23/27Ac assessed as residual binding at 10 uM incubated for 30 mins by alphascreen analysis relative to control.
Data set [8] has as its target CREB-binding protein (Homo sapiens) (UniProt Q92793). In words: Binding affinity of recombinant His-tagged CREBBP (unknown origin) to histone H4Ac (1 to 21 residues) K5/8/12/Ac-Biotin-OH assessed as residual binding at 10 uM incubated for 30 mins by alphascreen analysis relative to control.
The subject of data set [9] is Caco-2. The data set is described as follows: Cytotoxicity against human Caco-2 cells assessed as cell viability measured after 24 hrs by MTT assay. As to conditions: Caco-2, 24 h. In kind it is functional, cell-based.
Data set [10] concerns the target Bromodomain adjacent to zinc finger domain protein 2B (Homo sapiens) (UniProt Q9UIF8). In words: Binding affinity of recombinant His-tagged BAZ2B (unknown origin) to histone H3 (1 to 21 residues) K9/14Ac-Biotin-OH assessed as residual binding at 10 uM incubated for 30 mins by alphascreen analysis relative to control.
Data set [11] deals with T1, Bromodomain-containing protein 9 (Homo sapiens, UniProt Q9H8M2).
T1 sequence (Q9H8M2 whole entry): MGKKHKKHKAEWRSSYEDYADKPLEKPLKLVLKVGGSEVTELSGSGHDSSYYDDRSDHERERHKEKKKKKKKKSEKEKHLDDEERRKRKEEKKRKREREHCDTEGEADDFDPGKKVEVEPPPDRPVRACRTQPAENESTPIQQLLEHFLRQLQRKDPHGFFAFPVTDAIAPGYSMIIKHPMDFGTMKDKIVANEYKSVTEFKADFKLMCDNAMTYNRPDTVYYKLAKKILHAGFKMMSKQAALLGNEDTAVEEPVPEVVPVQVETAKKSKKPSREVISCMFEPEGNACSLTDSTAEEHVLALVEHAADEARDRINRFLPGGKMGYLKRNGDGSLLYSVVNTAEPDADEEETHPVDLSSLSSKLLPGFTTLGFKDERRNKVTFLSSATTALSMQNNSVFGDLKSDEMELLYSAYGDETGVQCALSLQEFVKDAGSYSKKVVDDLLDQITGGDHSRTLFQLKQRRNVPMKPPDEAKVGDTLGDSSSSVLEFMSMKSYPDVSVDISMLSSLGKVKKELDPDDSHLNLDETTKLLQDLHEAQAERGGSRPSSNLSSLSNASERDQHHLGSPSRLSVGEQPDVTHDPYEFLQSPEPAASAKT
In words: Inhibition of BRD9 (unknown origin) by alpha screen analysis.

For data set [12], the target named is Bromodomain testis-specific protein (Homo sapiens) (UniProt Q58F21). In words: Binding affinity of recombinant His-tagged BRDT-BD1 (unknown origin) to histone H4Ac (1 to 21 residues) K5/8/12/Ac-Biotin-OH assessed as residual binding at 10 uM incubated for 30 mins by alphascreen analysis relative to control.
Data set [13] concerns the target Bromodomain-containing protein 2 (Homo sapiens) (UniProt P25440). In words: Binding affinity of recombinant His-tagged BRD2-BD1 (unknown origin) to histone H4Ac (1 to 21 residues) K5/8/12/Ac-Biotin-OH assessed as residual binding at 10 uM incubated for 30 mins by alphascreen analysis relative to control.
The target in data set [14] is Chromatin remodeling regulator CECR2 (Homo sapiens) (UniProt Q9BXF3). In words: Binding affinity of recombinant His-tagged CECR2 (unknown origin) to histone H4Ac (1 to 21 residues) K5/8/12/Ac-Biotin-OH assessed as residual binding at 10 uM incubated for 30 mins by alphascreen analysis relative to control.
Data set [15] can be described thus: Cytotoxicity against human erythrocytes assessed as cell viability measured after 24 hrs by MTT assay. It counts as toxicity, cell-based, Erythrocyte.
Data set [16] relates to A-375. The data set is described as follows: Cytotoxicity against human A-375 cells assessed as cell viability measured after 24 hrs by MTT assay. In kind it is functional, cell-based. To be noted: A-375, 24 h.
Data set [17] has as its target Bromodomain-containing protein 4 (Homo sapiens) (UniProt O60885). The data set is described as follows: Binding affinity of recombinant His-tagged BRD4-BD1 (unknown origin) to histone H4Ac (1 to 21 residues) K5/8/12/Ac-Biotin-OH assessed as residual binding at 10 uM incubated for 30 mins by alphascreen analysis relative to control.
Data set [18] concerns the target Bromodomain-containing protein 2 (Homo sapiens) (UniProt P25440). The data set is described as follows: Binding affinity of recombinant His-tagged BRD2-BD2 (unknown origin) to histone H4Ac (1 to 21 residues) K5/8/12/Ac-Biotin-OH assessed as residual binding at 10 uM incubated for 30 mins by alphascreen analysis relative to control.
The target in data set [19] is SWI/SNF-related matrix-associated actin-dependent regulator of chromatin subfamily A member 4 (Homo sapiens) (UniProt P51532). In words: Binding affinity of recombinant His-tagged SMARCA4 (unknown origin) to histone H3 (1 to 30 residues) K4/18/23/27Ac assessed as residual binding at 10 uM incubated for 30 mins by alphascreen analysis relative to control.
For data set [20], the target named is ATPase family AAA domain-containing protein 2 (Homo sapiens) (UniProt Q6PL18). The data set is described as follows: Binding affinity of recombinant His-tagged ATAD2 (unknown origin) to histone H4Ac (1 to 21 residues) K5/8/12/Ac-Biotin-OH assessed as residual binding at 10 uM incubated for 30 mins by alphascreen analysis relative to control.
The target in data set [21] is Bromodomain-containing protein 7 (Homo sapiens, UniProt Q9NPI1). In words: Inhibition of recombinant His-tagged […] (unknown origin) to histone H3 (1 to 30 residues) K4/18/23/27Ac incubated for 30 mins by alphascreen analysis.
Data set [22] addresses Bromodomain-containing protein 1 (Homo sapiens) (UniProt O95696). The data set is described as follows: Binding affinity of recombinant His-tagged BRD1 (unknown origin) to histone H4Ac (1 to 21 residues) K5/8/12/Ac-Biotin-OH assessed as residual binding at 10 uM incubated for 30 mins by alphascreen analysis relative to control.
For data set [23], the system named is Jurkat. The data set is described as follows: Cytotoxicity against human Jurkat cells assessed as cell viability measured after 24 hrs by MTT assay. It counts as functional, cell-based.
Data set [24] has as its target T2, Bromodomain-containing protein 9 (Homo sapiens) (UniProt Q9H8M2).
T2 sequence (whole entry): T1 sequence (Q9H8M2 whole entry)
In words: Binding affinity of GST-tagged BRD9 domain (unknown origin) to histone H4Ac (1 to 21 residues) assessed as residual binding at 10 uM by alphascreen analysis relative to control.

In data set [25] the target is Nucleosome-remodeling factor subunit BPTF (Homo sapiens) (UniProt Q12830). In words: Binding affinity of recombinant His-tagged BPTF (unknown origin) to histone H4Ac (1 to 21 residues) K5/8/12/Ac-Biotin-OH assessed as residual binding at 10 uM incubated for 30 mins by alphascreen analysis relative to control.
In data set [26] the target is Bromodomain-containing protein 4 (Homo sapiens) (UniProt O60885). The data set is described as follows: Binding affinity of recombinant His-tagged BRD4-BD2 (unknown origin) to histone H4Ac (1 to 21 residues) K5/8/12/Ac-Biotin-OH assessed as residual binding at 10 uM incubated for 30 mins by alphascreen analysis relative to control.

Molecules are shown by their SMILES. A value given as a limit tells only on which side of the number the result lay.

The values that follow come from ChEMBL document CHEMBL5331094, “Identification of 2,4,5-trisubstituted-2,4-dihydro-3H-1,2,4-triazol-3-one-based small molecules as selective BRD9 binders” (Eur J Med Chem, 2023).

Bromodomain adjacent to zinc finger domain protein 2B (Homo sapiens), sequence (Q9UIF8 whole entry, the tested form may be a part): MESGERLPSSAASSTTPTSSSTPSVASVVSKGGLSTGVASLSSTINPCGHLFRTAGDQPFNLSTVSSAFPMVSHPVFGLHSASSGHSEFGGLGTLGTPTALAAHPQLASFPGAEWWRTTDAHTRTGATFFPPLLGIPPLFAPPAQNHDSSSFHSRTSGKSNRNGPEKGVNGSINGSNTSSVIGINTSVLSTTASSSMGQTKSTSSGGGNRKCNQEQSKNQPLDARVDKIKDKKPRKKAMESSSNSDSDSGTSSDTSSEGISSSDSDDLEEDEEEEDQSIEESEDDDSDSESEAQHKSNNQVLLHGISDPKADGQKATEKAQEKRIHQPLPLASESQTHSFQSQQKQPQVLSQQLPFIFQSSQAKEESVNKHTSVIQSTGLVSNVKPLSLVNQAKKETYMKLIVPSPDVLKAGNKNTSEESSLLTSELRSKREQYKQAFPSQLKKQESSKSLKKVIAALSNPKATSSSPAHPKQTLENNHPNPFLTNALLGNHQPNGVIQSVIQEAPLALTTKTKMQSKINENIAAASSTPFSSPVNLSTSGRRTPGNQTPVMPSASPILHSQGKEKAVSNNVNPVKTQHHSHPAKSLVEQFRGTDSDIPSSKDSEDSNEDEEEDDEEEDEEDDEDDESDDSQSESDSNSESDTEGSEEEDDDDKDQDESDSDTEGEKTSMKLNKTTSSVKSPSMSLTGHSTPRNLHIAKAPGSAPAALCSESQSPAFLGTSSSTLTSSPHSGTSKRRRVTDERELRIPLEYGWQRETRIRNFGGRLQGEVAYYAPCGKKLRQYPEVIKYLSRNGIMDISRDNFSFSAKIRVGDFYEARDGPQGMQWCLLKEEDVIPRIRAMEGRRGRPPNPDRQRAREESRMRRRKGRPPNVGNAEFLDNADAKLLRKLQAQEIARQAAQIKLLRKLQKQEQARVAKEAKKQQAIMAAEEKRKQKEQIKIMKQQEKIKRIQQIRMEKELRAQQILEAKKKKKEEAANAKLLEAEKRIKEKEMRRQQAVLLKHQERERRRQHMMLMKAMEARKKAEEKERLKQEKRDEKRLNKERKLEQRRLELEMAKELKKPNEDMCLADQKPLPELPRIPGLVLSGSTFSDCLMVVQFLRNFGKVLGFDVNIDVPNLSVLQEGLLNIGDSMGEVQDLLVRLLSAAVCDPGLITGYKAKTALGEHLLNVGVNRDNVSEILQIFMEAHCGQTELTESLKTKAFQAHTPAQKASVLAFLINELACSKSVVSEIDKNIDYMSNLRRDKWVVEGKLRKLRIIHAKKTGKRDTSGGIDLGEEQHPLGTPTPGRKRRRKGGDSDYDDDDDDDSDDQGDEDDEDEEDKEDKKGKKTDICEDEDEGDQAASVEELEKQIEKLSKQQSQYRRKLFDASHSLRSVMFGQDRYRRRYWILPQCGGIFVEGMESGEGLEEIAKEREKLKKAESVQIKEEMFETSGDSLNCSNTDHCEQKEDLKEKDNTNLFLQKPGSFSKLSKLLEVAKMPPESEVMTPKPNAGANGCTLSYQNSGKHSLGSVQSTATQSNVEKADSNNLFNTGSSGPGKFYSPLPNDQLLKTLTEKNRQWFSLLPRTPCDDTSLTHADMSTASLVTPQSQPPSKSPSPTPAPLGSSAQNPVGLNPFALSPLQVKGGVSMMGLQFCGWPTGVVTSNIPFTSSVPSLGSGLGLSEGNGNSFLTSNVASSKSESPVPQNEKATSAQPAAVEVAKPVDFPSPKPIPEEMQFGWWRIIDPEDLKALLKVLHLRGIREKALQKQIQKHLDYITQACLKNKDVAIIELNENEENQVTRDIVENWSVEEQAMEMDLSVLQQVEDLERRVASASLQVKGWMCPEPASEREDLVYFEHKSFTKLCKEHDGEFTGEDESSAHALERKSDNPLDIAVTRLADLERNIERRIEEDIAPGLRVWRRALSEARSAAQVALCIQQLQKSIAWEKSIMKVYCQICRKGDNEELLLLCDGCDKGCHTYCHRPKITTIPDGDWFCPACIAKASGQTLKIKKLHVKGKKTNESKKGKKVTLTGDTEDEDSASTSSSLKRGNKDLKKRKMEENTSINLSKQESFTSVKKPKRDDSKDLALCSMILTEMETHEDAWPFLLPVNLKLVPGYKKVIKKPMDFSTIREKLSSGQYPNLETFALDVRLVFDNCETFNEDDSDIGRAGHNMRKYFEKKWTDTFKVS
Bromodomain-containing protein 2 (Homo sapiens), sequence (P25440 whole entry, looked up, the tested form may be a part): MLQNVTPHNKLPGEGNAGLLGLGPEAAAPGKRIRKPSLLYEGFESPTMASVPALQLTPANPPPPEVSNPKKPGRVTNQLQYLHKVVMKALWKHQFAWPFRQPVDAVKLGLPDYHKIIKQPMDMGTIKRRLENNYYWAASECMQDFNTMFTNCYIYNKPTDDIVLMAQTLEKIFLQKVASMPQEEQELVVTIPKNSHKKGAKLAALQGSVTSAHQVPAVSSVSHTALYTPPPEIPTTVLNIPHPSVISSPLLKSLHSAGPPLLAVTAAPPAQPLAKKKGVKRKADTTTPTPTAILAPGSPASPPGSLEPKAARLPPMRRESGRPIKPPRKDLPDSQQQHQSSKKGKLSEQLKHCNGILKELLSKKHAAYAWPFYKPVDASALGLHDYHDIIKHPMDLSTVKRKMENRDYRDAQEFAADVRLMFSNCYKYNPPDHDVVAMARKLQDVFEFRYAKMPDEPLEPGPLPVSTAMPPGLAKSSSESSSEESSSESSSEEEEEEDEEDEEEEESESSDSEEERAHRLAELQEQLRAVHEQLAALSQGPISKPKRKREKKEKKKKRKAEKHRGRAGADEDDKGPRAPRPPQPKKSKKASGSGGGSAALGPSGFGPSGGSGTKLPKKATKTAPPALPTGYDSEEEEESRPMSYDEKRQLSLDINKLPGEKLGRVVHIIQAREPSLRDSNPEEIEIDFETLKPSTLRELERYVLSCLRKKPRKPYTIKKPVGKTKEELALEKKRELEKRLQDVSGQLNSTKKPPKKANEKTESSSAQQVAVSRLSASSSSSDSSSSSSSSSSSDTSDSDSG
Bromodomain and PHD finger-containing protein 3 (Homo sapiens), sequence (Q9ULD4 whole entry, the tested form may be a part): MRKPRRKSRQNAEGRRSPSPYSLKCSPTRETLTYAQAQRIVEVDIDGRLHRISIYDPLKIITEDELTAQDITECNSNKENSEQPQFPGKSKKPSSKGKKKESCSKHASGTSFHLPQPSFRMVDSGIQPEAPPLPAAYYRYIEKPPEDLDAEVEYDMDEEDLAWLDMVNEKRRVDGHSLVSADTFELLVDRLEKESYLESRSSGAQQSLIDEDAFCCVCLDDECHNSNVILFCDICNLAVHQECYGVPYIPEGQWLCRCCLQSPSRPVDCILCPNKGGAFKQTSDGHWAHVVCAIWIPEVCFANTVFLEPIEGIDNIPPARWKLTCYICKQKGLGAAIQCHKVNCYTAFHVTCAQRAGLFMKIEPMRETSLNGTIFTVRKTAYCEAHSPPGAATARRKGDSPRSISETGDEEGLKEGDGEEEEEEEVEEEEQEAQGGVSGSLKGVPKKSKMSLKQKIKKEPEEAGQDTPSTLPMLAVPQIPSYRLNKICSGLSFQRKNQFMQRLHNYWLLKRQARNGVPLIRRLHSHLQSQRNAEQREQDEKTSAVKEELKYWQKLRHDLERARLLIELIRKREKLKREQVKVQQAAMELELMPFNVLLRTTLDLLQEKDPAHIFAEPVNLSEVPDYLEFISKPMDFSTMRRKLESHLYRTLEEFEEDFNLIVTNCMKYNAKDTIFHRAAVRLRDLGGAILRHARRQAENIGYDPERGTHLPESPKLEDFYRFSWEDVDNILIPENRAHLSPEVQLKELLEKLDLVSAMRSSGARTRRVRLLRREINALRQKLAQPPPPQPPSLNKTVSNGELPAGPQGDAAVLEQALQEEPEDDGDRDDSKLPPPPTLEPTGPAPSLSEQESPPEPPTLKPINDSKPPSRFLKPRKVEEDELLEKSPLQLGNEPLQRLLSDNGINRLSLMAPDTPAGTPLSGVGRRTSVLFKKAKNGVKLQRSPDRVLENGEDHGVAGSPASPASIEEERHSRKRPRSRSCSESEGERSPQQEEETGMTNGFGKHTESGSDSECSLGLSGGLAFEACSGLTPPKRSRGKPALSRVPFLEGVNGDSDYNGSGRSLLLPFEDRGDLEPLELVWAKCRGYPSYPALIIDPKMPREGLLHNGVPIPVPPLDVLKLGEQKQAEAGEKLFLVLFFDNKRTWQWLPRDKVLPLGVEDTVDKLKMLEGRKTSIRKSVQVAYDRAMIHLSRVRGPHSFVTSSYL

Regarding `CCc1nn(C)c(=O)n1-c1ccc2c(c1)OCO2`, the Activity is 94.2% in [1]; > 100% in [2]; 77.7% in [3]; 96.5% in [5]; 75.8% in data set [7]; 97.7% in [8]. In addition, the Activity is > 100% in data set [10]; > 100% in data set [12]; 98.9% in data set [13]; 92.6% in data set [14]; > 100% in data set [17]; > 100% in data set [18]. The Activity in data set [19] was 96.5%; in data set [20], > 100%; in data set [22], 97.3%; in data set [24] it was 21.1%; in [25], 95.5%; in data set [26], 88.6%. Also, the IC50 was 500 µM in [4]; > 500 µM in data set [6]; 330 µM in data set [9]; 0.14 µM in data set [11]; 270 µM in data set [16]; 71.4 µM in data set [21]. In [23], the IC50 is 145 µM. In data set [15], the IC50 at 24 h is > 500 µM.
Take `CCc1nn(C)c(=O)n1-c1ccc(OC)c(OC)c1`: the Activity in [2] is 97.7%; in data set [5] it was 97.3%; in [8], > 100%; in [10], > 100%; in data set [12], 95.6%; in data set [13], > 100%. Also, the Activity in [17] was > 100%; in data set [18], 96.7%; in data set [24] it was 38.1%; in data set [26], 89.4%. Besides, the IC50 in data set [4] was > 500 µM; in data set [6], > 500 µM; in data set [9], > 500 µM; in [11] it was 4.13 µM; in [16], 480 µM; in data set [23], 420 µM. For the same molecule, in data set [15], the IC50 at 24 h is > 500 µM.
Take `CCn1nc(C)n(-c2ccc(F)c(Cl)c2)c1=O`: the Activity in data set [2] is 93.3%; in data set [5], > 100%; in data set [8], > 100%; in data set [10], > 100%; in data set [12] it was 98.3%; in data set [13], 98.2%. Further, the Activity in [17] was 99%; in data set [18], > 100%; in data set [24], 41.2%; in data set [26] it was > 100%. In addition, the IC50 in data set [4] was > 500 µM; in [6], > 500 µM; in [9], > 500 µM; in data set [11], 4.01 µM; in [16], 450 µM; in data set [23] it was > 500 µM. Further, the IC50 at 24 h in data set [15] is > 500 µM.

Usually IC50 stands for the concentration needed to halve the response being measured.
